Measured values reported in patent US11000033B2, “Ketone or oxime compound, and herbicide” (NISSAN CHEMICAL CORPORATION, priority 2014, dated 2021).

Columns and labels:
Amaranthus retroflexus = test: Test Example 5: herbicidal effect by foliage application, plastic box (symbol N); type: in vivo; conditions: 320 g/ha, 3 weeks after application
Outline: (§1)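 Visual herbicidal score, taken three weeks post-application, of seedlings sprayed on the foliage with water-diluted emulsion at a predetermined amount; plants were 14 days old, greenhouse-raised at 25° C. to 30° C.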

corn = test: Test Example 5: effect on crop by foliage application, plastic box (symbol c); type: in vivo; conditions: 320 g/ha, 3 weeks after application
Outline: (§2)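 Greenhouse culture at 25° C. to 30° C. followed spot-like sowing into sterilized diluvial soil, with seed covered by roughly 1.5 cm of soil.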

Stellaria media = test: Test Example 5: herbicidal effect by foliage application, plastic box (symbol P); type: in vivo; conditions: 320 g/ha, 3 weeks after application
Outline: as §1

Apera spica-venti = test: Test Example 5: herbicidal effect by foliage application, plastic box (symbol L); type: in vivo; conditions: 320 g/ha, 3 weeks after application
Outline: as §1

Setaria viridis = test: Test Example 5: herbicidal effect by foliage application, plastic box (symbol G); type: in vivo; conditions: 320 g/ha, 3 weeks after application
Outline: as §1

beet = test: Test Example 5: effect on crop by foliage application, plastic box (symbol f); type: in vivo; conditions: 320 g/ha, 3 weeks after application
Outline: as §2

Digitaria ciliaris = test: Test Example 5: herbicidal effect by foliage application, plastic box (symbol F); type: in vivo; conditions: 320 g/ha, 3 weeks after application
Outline: as §1

rice plant = test: Test Example 5: effect on crop by foliage application, plastic box (symbol b); type: in vivo; conditions: 320 g/ha, 3 weeks after application
Outline: as §2

Veronica persica = test: Test Example 5: herbicidal effect by foliage application, plastic box (symbol R); type: in vivo; conditions: 320 g/ha, 3 weeks after application
Outline: as §1

[1] = test system: Echinochloa crus-galli var. crus-galli; test: Test Example 5: herbicidal effect by foliage application, plastic box (symbol H); type: in vivo; conditions: 320 g/ha, 3 weeks after application
Outline: as §1

Lolium multiflorum Lam. = test: Test Example 5: herbicidal effect by foliage application, plastic box (symbol K); type: in vivo; conditions: 320 g/ha, 3 weeks after application
Outline: as §1

Avena fatua = test: Test Example 5: herbicidal effect by foliage application, plastic box (symbol I); type: in vivo; conditions: 320 g/ha, 3 weeks after application
Outline: as §1

Abutilon theophrasti = test: Test Example 5: herbicidal effect by foliage application, plastic box (symbol M); type: in vivo; conditions: 320 g/ha, 3 weeks after application
Outline: as §1

soybean = test: Test Example 5: effect on crop by foliage application, plastic box (symbol d); type: in vivo; conditions: 320 g/ha, 3 weeks after application
Outline: as §2

wheat = test: Test Example 5: effect on crop by foliage application, plastic box (symbol e); type: in vivo; conditions: 320 g/ha, 3 weeks after application
Outline: as §2

Alopecurus myosuroides = test: Test Example 5: herbicidal effect by foliage application, plastic box (symbol J); type: in vivo; conditions: 320 g/ha, 3 weeks after application
Outline: as §1

rapeseed = test: Test Example 5: effect on crop by foliage application, plastic box (symbol g); type: in vivo; conditions: 320 g/ha, 3 weeks after application
Outline: as §2

SMILES: CON=C(C)CC1CC(O)=C(c2c(C)cc([N+](=O)[O-])cc2C)C1=O (stereo not shown) [6-032]
- N: Amaranthus retroflexus, herbicidal effect grade (Amaranthus retroflexus): 0 (Herbicidal ratio of 5% or lower (almost no effect))
- c: corn, effect on crop grade (corn): 0 (Herbicidal ratio of 5% or lower (almost no effect))
- P: Stellaria media, herbicidal effect grade (Stellaria media): 0 (Herbicidal ratio of 5% or lower (almost no effect))
- L: Apera spica-venti, herbicidal effect grade (Apera spica-venti): 0 (Herbicidal ratio of 5% or lower (almost no effect))
- G: Setaria viridis, herbicidal effect grade (Setaria viridis): 3 (Herbicidal ratio of 40% or higher and lower than 70%)
- f: beet, effect on crop grade (beet): 0 (Herbicidal ratio of 5% or lower (almost no effect))
- F: Digitaria ciliaris, herbicidal effect grade (Digitaria ciliaris): 4 (Herbicidal ratio of 70% or higher and lower than 90%)
- b: directly sowed rice plant, effect on crop grade (rice plant): 0 (Herbicidal ratio of 5% or lower (almost no effect))
- R: Veronica persica, herbicidal effect grade (Veronica persica): 0 (Herbicidal ratio of 5% or lower (almost no effect))
- H: Echinochloa crus-galli var. crus-galli, herbicidal effect grade [1]: 4 (Herbicidal ratio of 70% or higher and lower than 90%)
- K: Lolium multiflorum Lam., herbicidal effect grade (Lolium multiflorum Lam.): 0 (Herbicidal ratio of 5% or lower (almost no effect))
- melting point: 181 to 183 °C
- I: Avena fatua, herbicidal effect grade (Avena fatua): 0 (Herbicidal ratio of 5% or lower (almost no effect))
- M: Abutilon theophrasti, herbicidal effect grade (Abutilon theophrasti): 0 (Herbicidal ratio of 5% or lower (almost no effect))
- d: soybean, effect on crop grade (soybean): 0 (Herbicidal ratio of 5% or lower (almost no effect))
- e: wheat, effect on crop grade (wheat): 0 (Herbicidal ratio of 5% or lower (almost no effect))
- J: Alopecurus myosuroides, herbicidal effect grade (Alopecurus myosuroides): 0 (Herbicidal ratio of 5% or lower (almost no effect))
- g: rapeseed, effect on crop grade (rapeseed): 0 (Herbicidal ratio of 5% or lower (almost no effect))

SMILES: CON=C(C)CC1CC(OC)=C(c2c(C)cc(OCC(F)(F)F)cc2C)C1=O (stereo not shown) [6-042]
- melting point: 117 to 119 °C
